Measurements taken from patent publication US9932381B2, “Exendin-4 derivatives as selective glucagon receptor agonists” (priority 2014, dated 2018).
Non-standard residues stand in square brackets, D forms with d. Residues, ends and D or L forms follow the SMILES beside them. Ala(4-thiazolyl) = N[C@@H](Cc1cscn1)C(=O)O; 1Nal = N[C@@H](Cc1cccc2ccccc12)C(=O)O; Phg = N[C@H](C(=O)O)c1ccccc1; Nle = CCCC[C@H](N)C(=O)O

Legend:
[1] = target: T1, human GLP-1 receptor (hGLP-1 R) (Homo sapiens, UniProt P43220); experiment: cAMP response (HTRF) of HEK-293 cells stably expressing human GLP-1 receptor; assay type: cell-based; settings: Table 4
T1 construct: expressed in transfected cells; host or cells: HEK-293
T1 sequence (P43220 24-463): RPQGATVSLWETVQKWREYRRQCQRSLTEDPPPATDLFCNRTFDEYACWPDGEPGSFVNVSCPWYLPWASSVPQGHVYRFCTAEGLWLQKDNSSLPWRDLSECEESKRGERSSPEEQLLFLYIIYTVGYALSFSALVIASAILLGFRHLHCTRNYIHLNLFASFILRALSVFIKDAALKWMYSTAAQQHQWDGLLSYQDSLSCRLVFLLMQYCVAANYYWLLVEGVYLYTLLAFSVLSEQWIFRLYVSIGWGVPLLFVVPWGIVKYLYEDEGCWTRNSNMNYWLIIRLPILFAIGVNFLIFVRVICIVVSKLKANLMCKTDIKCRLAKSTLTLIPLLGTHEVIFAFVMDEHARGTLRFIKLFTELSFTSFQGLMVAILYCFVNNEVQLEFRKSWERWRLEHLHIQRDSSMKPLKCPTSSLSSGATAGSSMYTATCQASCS
Protocol: (§1) cAMP content of cells was determined using a kit from Cisbio Corp. (cat. no. 62AM4PEC) based on HTRF (Homogenous Time Resolved Fluorescence). For preparation, cells were split into T175 culture flasks and grown overnight to near confluency in medium (DMEM/10% FBS). Medium was then removed and cells washed with PBS lacking calcium and magnesium, followed by proteinase treatment with accutase (Sigma-Aldrich cat. no. A6964). Detached cells were washed and resuspended in assay buffer (1×HBSS; 20 mM HEPES, 0.1% BSA, 2 mM IBMX) and cellular density determined. They were then diluted to 400000 cells/ml and 25 μl-aliquots dispensed into the wells of 96-well plates. For measurement, 25 μl of test compound in assay buffer was added to the wells, followed by incubation for 30 minutes at room temperature. After addition of HTRF reagents diluted in lysis buffer (kit components), the plates were incubated for 1 hr, followed by measurement of the fluorescence ratio at 665/620 nm. In vitro potency of agonists was quantified by determining the concentrations that caused 50% activation of maximal response (EC50).

[2] = target: T2, human glucagon receptor (hGLUC R) (Homo sapiens, UniProt P47871); experiment: cAMP response (HTRF) of HEK-293 cells stably expressing human glucagon receptor; assay type: cell-based; settings: Table 4; read-out: EC50 hGLUC R
T2 construct: expressed in transfected cells; host or cells: HEK-293
T2 sequence (P47871 26-477): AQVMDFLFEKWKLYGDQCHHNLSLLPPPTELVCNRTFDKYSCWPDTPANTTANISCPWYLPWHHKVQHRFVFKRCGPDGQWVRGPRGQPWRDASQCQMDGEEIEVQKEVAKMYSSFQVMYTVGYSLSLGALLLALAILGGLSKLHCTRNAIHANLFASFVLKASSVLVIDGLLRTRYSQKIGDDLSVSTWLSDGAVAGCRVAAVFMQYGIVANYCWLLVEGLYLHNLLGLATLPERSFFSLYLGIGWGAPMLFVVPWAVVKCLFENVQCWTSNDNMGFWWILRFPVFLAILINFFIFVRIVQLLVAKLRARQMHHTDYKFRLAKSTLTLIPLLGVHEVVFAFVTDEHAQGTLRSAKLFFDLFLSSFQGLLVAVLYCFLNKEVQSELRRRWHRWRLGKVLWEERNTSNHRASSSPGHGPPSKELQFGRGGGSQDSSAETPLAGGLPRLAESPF
Protocol: as §1, with “temperature.” for “temperature. After addition of HTRF reagents diluted in lysis buffer (kit components), the plates were incubated for 1 hr, followed by measurement of the fluorescence ratio at 665/620 nm. In vitro potency of agonists was quantified by determining the concentrations that caused 50% activation of maximal response (EC50).”

Compound	EC50 [1]	EC50 [2]
CC[C@H](C)[C@H](NC(=O)[C@H](Cc1ccccc1)NC(=O)[C@H](CCC(=O)O)NC(=O)[C@H](CCC(N)=O)NC(=O)[C@H](C)NC(=O)[C@H](CCCNC(=N)N)NC(=O)[C@H](CCCNC(=N)N)NC(=O)[C@H](CO)NC(=O)[C@H](CCC(=O)O)NC(=O)[C@H](CC(C)C)NC(=O)[C@H](CCC(N)=O)NC(=O)[C@H](CCCCN)NC(=O)[C@H](CO)NC(=O)[C@@H](NC(=O)[C@H](CC(=O)O)NC(=O)[C@H](CO)NC(=O)[C@@H](NC(=O)[C@H](Cc1ccccc1)NC(=O)[C@@H](NC(=O)CNC(=O)[C@H](CCC(N)=O)NC(=O)[C@H](CO)NC(=O)[C@@H](N)Cc1cscn1)[C@@H](C)O)[C@@H](C)O)c1ccccc1)C(=O)N[C@@H](CCC(=O)O)C(=O)N[C@@H](Cc1c[nH]c2ccccc12)C(=O)N[C@@H](CC(C)C)C(=O)N[C@@H](CC(C)C)C(=O)N[C@@H](C)C(=O)N[C@H](C(=O)NCC(=O)N1CCC[C@H]1C(=O)N[C@@H](CCC(=O)O)C(=O)N[C@@H](CO)C(=O)NCC(=O)N[C@@H](C)C(=O)N1CCC[C@H]1C(=O)N1CCC[C@H]1C(=O)N1CCC[C@H]1C(=O)N[C@@H](CO)C(=O)O)[C@@H](C)O [SEQ ID NO 10, Tza-S-Q-G-T-F-T-S-D-Phg-SKQLESRRAQEFIEWLLATGPESGAPPPS-OH] (H-[Ala(4-thiazolyl)]SQGTFTSD[Phg]SKQLESRRAQEFIEWLLATGPESGAPPPS-OH; N-terminus assumed)	45 nM	6 pM
CC[C@H](C)[C@H](NC(=O)[C@H](Cc1ccccc1)NC(=O)[C@H](CCC(=O)O)NC(=O)[C@H](CCC(N)=O)NC(=O)[C@H](C)NC(=O)[C@H](CCCNC(=N)N)NC(=O)[C@H](CCCNC(=N)N)NC(=O)[C@H](CO)NC(=O)[C@H](CCC(=O)O)NC(=O)[C@H](CC(C)C)NC(=O)[C@H](CCC(N)=O)NC(=O)[C@H](CCCCN)NC(=O)[C@H](CO)NC(=O)[C@H](Cc1cccc2ccccc12)NC(=O)[C@H](CC(=O)O)NC(=O)[C@H](CO)NC(=O)[C@@H](NC(=O)[C@H](Cc1ccccc1)NC(=O)[C@@H](NC(=O)CNC(=O)[C@H](CCC(N)=O)NC(=O)[C@H](CO)NC(=O)[C@@H](N)Cc1cscn1)[C@@H](C)O)[C@@H](C)O)C(=O)N[C@@H](CCC(=O)O)C(=O)N[C@@H](Cc1c[nH]c2ccccc12)C(=O)N[C@@H](CC(C)C)C(=O)N[C@@H](CC(C)C)C(=O)N[C@@H](C)C(=O)N[C@H](C(=O)NCC(=O)N1CCC[C@H]1C(=O)N[C@@H](CCC(=O)O)C(=O)N[C@@H](CO)C(=O)NCC(=O)N[C@@H](C)C(=O)N1CCC[C@H]1C(=O)N1CCC[C@H]1C(=O)N1CCC[C@H]1C(=O)N[C@@H](CO)C(=O)O)[C@@H](C)O [SEQ ID NO 11, Tza-S-Q-G-T-F-T-S-D-1Nal-SKQLESRRAQEFIEWLLATGPESGAPPPS-OH] (H-[Ala(4-thiazolyl)]SQGTFTSD[1Nal]SKQLESRRAQEFIEWLLATGPESGAPPPS-OH; N-terminus assumed)	11.7 nM	–
CCCC[C@H](NC(=O)[C@H](CCC(N)=O)NC(=O)[C@H](CCCCN)NC(=O)[C@H](CO)NC(=O)[C@H](CC(C)C)NC(=O)[C@H](CC(=O)O)NC(=O)[C@H](CO)NC(=O)[C@@H](NC(=O)[C@H](Cc1ccccc1)NC(=O)[C@@H](NC(=O)CNC(=O)[C@H](CCC(N)=O)NC(=O)[C@H](CO)NC(=O)[C@@H](N)Cc1cscn1)[C@@H](C)O)[C@@H](C)O)C(=O)N[C@@H](CCC(=O)O)C(=O)N[C@@H](CO)C(=O)N[C@@H](CCCNC(=N)N)C(=O)N[C@@H](CCCNC(=N)N)C(=O)N[C@@H](C)C(=O)N[C@@H](CCC(N)=O)C(=O)N[C@@H](CCC(=O)O)C(=O)N[C@@H](Cc1ccccc1)C(=O)N[C@H](C(=O)N[C@@H](CCC(=O)O)C(=O)N[C@@H](Cc1c[nH]c2ccccc12)C(=O)N[C@@H](CC(C)C)C(=O)N[C@@H](CC(C)C)C(=O)N[C@@H](C)C(=O)N[C@H](C(=O)NCC(=O)N1CCC[C@H]1C(=O)N[C@@H](CCC(=O)O)C(=O)N[C@@H](CO)C(=O)NCC(=O)N[C@@H](C)C(=O)N1CCC[C@H]1C(=O)N1CCC[C@H]1C(=O)N1CCC[C@H]1C(=O)N[C@@H](CO)C(=O)O)[C@@H](C)O)[C@@H](C)CC [SEQ ID NO 16, Tza-S-Q-G-T-F-T-S-D-L-S-K-Q-Nle-ESRRAQEFIEWLLATGPESGAPPPS-OH] (H-[Ala(4-thiazolyl)]SQGTFTSDLSKQ[Nle]ESRRAQEFIEWLLATGPESGAPPPS-OH; N-terminus assumed)	19.7 nM	–

Stronger by EC50 [1], values ahead:

EC50 [1]	EC50 [2]	Compound
5.8 nM	2.2 pM	CC[C@H](C)[C@H](NC(=O)[C@H](Cc1ccccc1)NC(=O)[C@H](CCC(=O)O)NC(=O)[C@H](CCC(N)=O)NC(=O)[C@H](C)NC(=O)[C@H](CCCNC(=N)N)NC(=O)[C@H](CCCNC(=N)N)NC(=O)[C@H](CO)NC(=O)[C@H](CCC(=O)O)NC(=O)[C@H](CC(C)C)NC(=O)[C@H](CCC(N)=O)NC(=O)[C@H](CCCCN)NC(=O)[C@H](CO)NC(=O)[C@@H](NC(=O)[C@H](CC(=O)O)NC(=O)[C@H](CO)NC(=O)[C@@H](NC(=O)[C@H](Cc1ccccc1)NC(=O)[C@@H](NC(=O)CNC(=O)[C@H](CCC(N)=O)NC(=O)[C@H](CO)NC(=O)[C@@H](N)Cc1cscn1)[C@@H](C)O)[C@@H](C)O)[C@@H](C)CC)C(=O)N[C@@H](CCC(=O)O)C(=O)N[C@@H](Cc1c[nH]c2ccccc12)C(=O)N[C@@H](CC(C)C)C(=O)N[C@@H](CC(C)C)C(=O)N[C@@H](C)C(=O)N[C@H](C(=O)NCC(=O)N1CCC[C@H]1C(=O)N[C@@H](CCC(=O)O)C(=O)N[C@@H](CO)C(=O)NCC(=O)N[C@@H](C)C(=O)N1CCC[C@H]1C(=O)N1CCC[C@H]1C(=O)N1CCC[C@H]1C(=O)N[C@@H](CO)C(=O)O)[C@@H](C)O [SEQ ID NO 8, Tza-SQGTFTSDISKQLESRRAQEFIEWLLATGPESGAPPPS-OH]
4.19 nM	2.4 pM	CC[C@H](C)[C@H](NC(=O)[C@H](Cc1ccccc1)NC(=O)[C@H](CCC(=O)O)NC(=O)[C@H](CCC(N)=O)NC(=O)[C@H](C)NC(=O)[C@H](CCCNC(=N)N)NC(=O)[C@H](CCCNC(=N)N)NC(=O)[C@H](CO)NC(=O)[C@H](CCC(=O)O)NC(=O)[C@H](CC(C)C)NC(=O)[C@H](CCC(N)=O)NC(=O)[C@H](CCCCN)NC(=O)[C@H](CO)NC(=O)[C@@H](NC(=O)[C@H](CC(=O)O)NC(=O)[C@H](CO)NC(=O)[C@@H](NC(=O)[C@H](Cc1ccccc1)NC(=O)[C@@H](NC(=O)CNC(=O)[C@H](CCC(N)=O)NC(=O)[C@H](CO)NC(=O)[C@@H](N)Cc1cscn1)[C@@H](C)O)[C@@H](C)O)C(C)C)C(=O)N[C@@H](CCC(=O)O)C(=O)N[C@@H](Cc1c[nH]c2ccccc12)C(=O)N[C@@H](CC(C)C)C(=O)N[C@@H](CC(C)C)C(=O)N[C@@H](C)C(=O)N[C@H](C(=O)NCC(=O)N1CCC[C@H]1C(=O)N[C@@H](CCC(=O)O)C(=O)N[C@@H](CO)C(=O)NCC(=O)N[C@@H](C)C(=O)N1CCC[C@H]1C(=O)N1CCC[C@H]1C(=O)N1CCC[C@H]1C(=O)N[C@@H](CO)C(=O)O)[C@@H](C)O [SEQ ID NO 7, Tza-SQGTFTSDVSKQLESRRAQEFIEWLLATGPESGAPPPS-OH] (H-[Ala(4-thiazolyl)]SQGTFTSDVSKQLESRRAQEFIEWLLATGPESGAPPPS-OH; N-terminus assumed)
3.3 nM	–	CC[C@H](C)[C@H](NC(=O)[C@H](Cc1ccccc1)NC(=O)[C@H](CCC(=O)O)NC(=O)[C@H](CCC(N)=O)NC(=O)[C@H](C)NC(=O)[C@H](CCCNC(=N)N)NC(=O)[C@H](CCCNC(=N)N)NC(=O)[C@H](CO)NC(=O)[C@H](CCC(=O)O)NC(=O)[C@H](CC(C)C)NC(=O)[C@H](CCC(N)=O)NC(=O)[C@H](CCCCN)NC(=O)[C@H](CO)NC(=O)[C@H](CC(C)C)NC(=O)[C@H](CC(=O)O)NC(=O)[C@H](CO)NC(=O)[C@@H](NC(=O)[C@H](Cc1ccccc1)NC(=O)[C@@H](NC(=O)CNC(=O)[C@H](CCC(N)=O)NC(=O)[C@H](CO)NC(=O)[C@@H](N)Cc1cscn1)[C@@H](C)O)[C@@H](C)O)C(=O)N[C@@H](CCC(=O)O)C(=O)N[C@@H](Cc1c[nH]c2ccccc12)C(=O)N[C@@H](CC(C)C)C(=O)N[C@@H](CC(C)C)C(=O)N[C@@H](C)C(=O)NCC(=O)NCC(=O)N1CCC[C@H]1C(=O)N[C@@H](CCC(=O)O)C(=O)N[C@@H](CO)C(=O)NCC(=O)N[C@@H](C)C(=O)N1CCC[C@H]1C(=O)N1CCC[C@H]1C(=O)N1CCC[C@H]1C(=O)N[C@@H](CO)C(=O)O [SEQ ID NO 4, Tza-SQGTFTSDLSKQLESRRAQEFIEWLLAGGPESGAPPPS-OH] (H-[Ala(4-thiazolyl)]SQGTFTSDLSKQLESRRAQEFIEWLLAGGPESGAPPPS-OH; N-terminus assumed)
